Laboratory results taken from patent publication US3991202A, “Imidazolium salts” (Janssen Pharmaceutica N.V., priority 1974, dated 1976).

Tests used:
Assay in all cases: Antifungal growth inhibition in Sabouraud's liquid medium
Format in all cases: cell-based
[1] = test system: Trichophyton rubrum; settings: Trichophyton rubrum, 336 h; Tr.r.; tested at 100, 10, 1 μg/ml; read-out: Concentrations in μg/ml for 100% Inhibition of Growth
Procedure: (§1) Tests for the control of fungal organisms were performed using Sabouraud's liquid medium (1 g. of neopeptone Difco and 2 g. of glucose Difco per 100 ml. distilled water) in test tubes, each containing 4.5 ml. of liquid medium, autoclaved at 120° C for 15 minutes. The imidazolium salts were prepared for testing by dissolving in 50% ethanol to a concentration of 20 mg./ml. and thereafter diluting with sterile distilled water to obtain a concentration of 10 mg./ml. Successive decimal dilutions were then made with sterile distilled water to prepare a series of test solutions. In carrying out the test, 0.5 ml. of one of the test solutions is added to 4.5 ml. of Sabouraud's liquid medium to obtain a test medium. In this manner, from appropriate test solution, test media containing 100 μg, 10 μg and 1 μg of imidazolium salt per milliliter of medium were obtained.
(§2) Control tubes were prepared by adding 0.5 ml. of sterile distilled water to 4.5 ml. of medium. Ethanol was also added to simulate the amount which would be present in the test media. Filamentous fungi were incubated at 25° C for two to three weeks. A square block of side 2 mm. was excised and inoculated into the liquid medium. A 3-day old culture on Sabouraud's liquid medium was used for yeasts. The inoculum was 0.05 ml. per tube. All cultures were incubated at 25° C for 14 days.

[2] = test system: Microsporum canis; settings: Microsporum canis, 336 h; M.c.; tested at 100, 10, 1 μg/ml; read-out: Concentrations in μg/ml for 100% Inhibition of Growth
Procedure: as §1, §2

[3] = test system: Cryptococcus neoformans; settings: Cryptococcus neoformans, 336 h; Cr.n.; tested at 100, 10, 1 μg/ml; read-out: Concentrations in μg/ml for 100% Inhibition of Growth
Procedure: as §1, §2

[4] = test system: Ctenomyces mentagrophytes; settings: Trichophyton mentagrophytes, 336 h; Ct.m.; tested at 100, 10, 1 μg/ml; read-out: Concentrations in μg/ml for 100% Inhibition of Growth
Procedure: as §1, §2

SMILES	MIC [1]	MIC [2]	MIC [3]	MIC [4]
O=C(CCn1cc[n+](CC(OCc2ccc(Cl)cc2Cl)c2ccc(Cl)cc2Cl)c1)c1ccc(Cl)cc1.[Cl-] (stereo not drawn) [(CH2)2COC6H4pCl, 1-[2-(p-Chlorobenzoyl)ethyl]-3-[2,4-dichloro-β-(2,4dichlorobenzyloxy)phenethyl]imidazolium chloride]	1 µg/mL	1 µg/mL	1 µg/mL	1 µg/mL
O=C(CC[n+]1ccn(CC(OCc2ccc(Cl)cc2Cl)c2ccc(Cl)cc2Cl)c1)Nc1ccccc1[N+](=O)[O-].[Cl-] (stereo not drawn) [(CH2)2CONHC6H4oNO2, 1-[2,4-Dichloro-β-(2,4-dichlorobenzyloxy)-phenethyl]-3-{2-[N-(o-nitrophenyl)carbamoyl]ethyl}imidazolium chloride]	1 µg/mL	10 µg/mL	100 µg/mL	1 µg/mL
Clc1ccc(NCCn2cc[n+](CC(OCc3ccc(Cl)cc3Cl)c3ccc(Cl)cc3Cl)c2)cc1.[Br-] (stereo not drawn) [(CH2)2NHC6H4pCl, 1-[2-(p-chloroanilino)ethyl]-3-[2,4-dichloro-β-(2,4-dichlorobenzyloxy)phenethyl]imidazolium bromide]	10 µg/mL	10 µg/mL	1 µg/mL	10 µg/mL
Cc1cccc(C)c1OCC[n+]1ccn(CC(OCc2ccc(Cl)cc2Cl)c2ccc(Cl)cc2Cl)c1.[Br-] (stereo not drawn) [(CH2)2OC6H32,6(CH3)2, 1-[2,4-Dichloro-β-(2,4-dichlorobenzyloxy)phenethyl]-3-[2-(2,6-xylyloxy)ethyl]imidazolium bromide]	10 µg/mL	10 µg/mL	1 µg/mL	1 µg/mL
Clc1ccc(COC(Cn2cc[n+](CCOc3ccc4ccccc4c3)c2)c2ccc(Cl)cc2Cl)c(Cl)c1.O.[Br-] (stereo not drawn) [(CH2)2OC10H7, 1-[2,4-Dichloro-β-(2,4-dichlorobenzyloxy)phenethyl]3-[2-(2-naphthyloxy)ethyl]imidazolium bromide hydrate]	10 µg/mL	10 µg/mL	1 µg/mL	10 µg/mL
Clc1ccc(COC(Cn2cc[n+](CCCOc3ccc4ccccc4c3)c2)c2ccc(Cl)cc2Cl)c(Cl)c1.O.[Cl-] (stereo not drawn) [(CH2)3OC10H7, 1-[2,4-Dichloro-β-(2,4-dichlorobenzyloxy)phenethyl]-3-[3-(2-naphthyloxy)propyl]imidazolium chloride hydrate]	10 µg/mL	10 µg/mL	100 µg/mL	10 µg/mL
Clc1ccc(C=CCn2cc[n+](CC(OCc3ccc(Cl)cc3Cl)c3ccc(Cl)cc3Cl)c2)c(Cl)c1.[Cl-] (stereo not drawn) [CH2CHCHC6H3s,4(Cl)2, 1-(2,4-dichlorocinnamyl)-3-[2,4-dichloro-β-(2,4-dichlorobenzyloxy)phenethyl]-imidazolium chloride]	10 µg/mL	10 µg/mL	10 µg/mL	1 µg/mL
Clc1ccc(COC(C[n+]2ccn(CC=Cc3ccccc3)c2)c2ccc(Cl)cc2Cl)c(Cl)c1.[Cl-] (stereo not drawn) [CH2CHCHC6H5, 1-Cinnamyl-3-[2,4-dichloro-β-(2,4-dichlorobenzyloxy)phenethyl]imidazolium chloride]	1 µg/mL	10 µg/mL	100 µg/mL	10 µg/mL
COc1cccc(C(=O)C[n+]2ccn(CC(OCc3ccc(Cl)cc3Cl)c3ccc(Cl)cc3Cl)c2)c1.[Br-] (stereo not drawn) [CH2COC6H4mOCH3, 1-[2,4-dichloro-β-(2,4-dichlorobenzyloxy)phenethyl]-3-(m-methoxyphenacyl)imidazolium bromide]	1 µg/mL	10 µg/mL	10 µg/mL	1 µg/mL
COc1ccc(C(=O)C[n+]2ccn(CC(OCc3ccc(Cl)cc3Cl)c3ccc(Cl)cc3Cl)c2)cc1.[Br-] (stereo not drawn) [CH2COC6H4p(OCH3), 1-[2,4-Dichloro-β-(2,4-dichlorobenzyloxy)phenethyl]-3-(p-methoxyphenacyl)imidazolium bromide]	1 µg/mL	10 µg/mL	10 µg/mL	10 µg/mL
O=C(Cn1cc[n+](CC(OCc2ccc(Cl)cc2Cl)c2ccc(Cl)cc2Cl)c1)c1ccc(Br)cc1.[Cl-] (stereo not drawn) [CH2COC6H4pBr, 1-(p-bromobenzoylmethyl)-3-[2,4-dichloro-β-(2,4-dichlorobenzyloxy)phenethyl]imidazolium chloride]	1 µg/mL	10 µg/mL	1 µg/mL	1 µg/mL
O=C(Cn1cc[n+](CC(OCc2ccc(Cl)cc2Cl)c2ccc(Cl)cc2Cl)c1)c1ccc(Cl)cc1.[Br-] (stereo not drawn) [CH2COC6H4pCl, 1-(p-chlorobenzoylmethyl)-3-[2,4-dichloro-β-(2,4-dichlorobenzyloxy)phenethyl]imidazolium bromide]	1 µg/mL	1 µg/mL	1 µg/mL	1 µg/mL
O=C(Cn1cc[n+](CC(OCc2ccc(Cl)cc2Cl)c2ccc(Cl)cc2Cl)c1)c1ccc(Cl)cc1Cl.[Cl-] (stereo not drawn) [CH2COC6H32,4(Cl)2, 1-(2,4-dichlorobenzoylmethyl)-3-[2,4-dichloro-β-(2,4-dichlorobenzyloxy)phenethyl]imidazolium chloride]	1 µg/mL	10 µg/mL	1 µg/mL	1 µg/mL
COc1cccc(NC(=O)C[n+]2ccn(CC(OCc3ccc(Cl)cc3Cl)c3ccc(Cl)cc3Cl)c2)c1 (stereo not drawn) [CH2CONHC6H4m(OCH3), hydrate]	1 µg/mL	10 µg/mL	10 µg/mL	10 µg/mL
O=C(C[n+]1ccn(CC(OCc2ccc(Cl)cc2Cl)c2ccc(Cl)cc2Cl)c1)Nc1ccccc1Cl (stereo not drawn) [CH2CONHC6H4oCl, 1-[N-(o-chlorophenyl)carbamoylmethyl]-3-[2,4-dichloro-β-(2,4-dichlorobenzyloxy)phenethyl]imidazolium chloride]	1 µg/mL	10 µg/mL	10 µg/mL	10 µg/mL
O=C(C[n+]1ccn(CC(OCc2ccc(Cl)cc2Cl)c2ccc(Cl)cc2Cl)c1)Nc1ccccc1Oc1ccccc1 (stereo not drawn) [CH2CONHC6H4oOPh, 1-[2,4-dichloro-β-(2,4-dichlorobenzyloxy)phenethyl]-3-[N-(o-phenoxyphenyl)carbamoylmethyl]imidazolium chloride hydrate]	1 µg/mL	1 µg/mL	100 µg/mL	10 µg/mL
O=C(C[n+]1ccn(CC(OCc2ccc(Cl)cc2Cl)c2ccc(Cl)cc2Cl)c1)NCc1ccccc1Cl (stereo not drawn) [CH2CONHCH2C6H4oCl, 1-[N-(o-Chlorobenzyl)carbamoylmethyl]3-[2,4-dichloroβ-(2,4-dichlorobenzyloxy)phenethyl]imidazolium chloride]	1 µg/mL	1 µg/mL	100 µg/mL	10 µg/mL
Fc1ccc(C(c2ccc(Cl)cc2)[n+]2ccn(CC(OCc3ccc(Cl)cc3Cl)c3ccc(Cl)cc3Cl)c2)cc1 (stereo not drawn) [drawing 61]	1 µg/mL	10 µg/mL	100 µg/mL	10 µg/mL
CCCCCCCC[n+]1ccn(CC(OCc2ccc(Cl)cc2Cl)c2ccc(Cl)cc2Cl)c1.[Br-] (stereo not drawn) [nC8H17, 1-[2,4-dichloro-β-(2,4-dichlorobenzyloxy)phenethyl]3-n-octylimidazolium bromide]	1 µg/mL	10 µg/mL	100 µg/mL	10 µg/mL
O=C(C[n+]1ccn(CC(OCc2ccc(Cl)cc2)c2ccc(Cl)cc2)c1)c1ccc(F)cc1 (stereo not drawn) [pClC6H4/CH2C6H4pCl/CH2COC6H4pF, 1-[p-Chloro-β-(p-chlorobenzyloxy)phenethyl]-3-(p-flurophenacyl)imidazolium chloride]	10 µg/mL	10 µg/mL	10 µg/mL	10 µg/mL
O=C(C[n+]1ccn(CC(OCc2ccc(Cl)cc2Cl)c2ccc(Cl)cc2)c1)c1ccc(F)cc1.[Cl-] (stereo not drawn) [pClC6H4/CH2C6H32,4(Cl)2/CH2COC6H4pF, 1-[p-chloro-β-(2,4-dichlorobenzyloxy)phenethyl]-3-(p-fluorophenacyl)imidazolium chloride]	10 µg/mL	10 µg/mL	10 µg/mL	10 µg/mL
